Converted amounts (≈) assume the structure as drawn. Non-standard residues stand in square brackets, D forms with d. Residues, ends and D or L forms follow the SMILES beside them. *: point of attachment. Palmitoyl = CCCCCCCCCCCCCCCC(=O)*; Aib = CC(C)(N)C(=O)O
assay: Solubility of peptides in buffer; type: physicochemical; conditions: Table 3; 80 mM AmBicarb pH 7.7; unit not given

Compound	Solubility 80 mM AmBicarb pH 7.7
CCCCCCCCCCCCCCCC(=O)NCCCC[C@H](NC(=O)[C@H](CO)NC(=O)[C@@H]1CCCN1C(=O)[C@@H]1CCCN1C(=O)[C@@H]1CCCN1C(=O)[C@H](C)NC(=O)CNC(=O)[C@H](CO)NC(=O)[C@H](CO)NC(=O)[C@@H]1CCCN1C(=O)CNC(=O)CNC(=O)[C@H](CCCNC(=N)N)NC(=O)[C@@H](NC(=O)[C@H](CC(C)C)NC(=O)[C@H](Cc1c[nH]c2ccccc12)NC(=O)[C@H](C)NC(=O)[C@@H](NC(=O)[C@H](Cc1ccccc1)NC(=O)[C@H](CCC(=O)O)NC(=O)[C@H](CCCNC(=N)N)NC(=O)[C@@H](NC(=O)[C@H](C)NC(=O)[C@H](CCC(=O)O)NC(=O)[C@H](CCC(=O)O)NC(=O)[C@H](CCC(=O)O)NC(=O)[C@H](CC(C)C)NC(=O)[C@H](Cc1ccc(O)cc1)NC(=O)[C@H](CO)NC(=O)[C@H](CO)NC(=O)[C@@H](NC(=O)[C@@H](N)CC(=O)O)C(C)C)C(C)C)[C@@H](C)CC)C(C)C)C(N)=O [SEQ ID NO: 71] (H-DVSSYLEEEAVREFIAWLVRGGPSSGAPPPSK(Palmitoyl)-NH2; N-terminus assumed)	>20
CCCCCCCCCCCCCCCC(=O)NCCCC[C@H](NC(=O)[C@H](CO)NC(=O)[C@@H]1CCCN1C(=O)[C@@H]1CCCN1C(=O)[C@@H]1CCCN1C(=O)[C@H](C)NC(=O)CNC(=O)[C@H](CO)NC(=O)[C@H](CO)NC(=O)[C@@H]1CCCN1C(=O)CNC(=O)CNC(=O)[C@H](CCCNC(=N)N)NC(=O)[C@@H](NC(=O)[C@H](CC(C)C)NC(=O)[C@H](Cc1c[nH]c2ccccc12)NC(=O)[C@H](CCC(=O)O)NC(=O)[C@@H](NC(=O)[C@H](Cc1ccccc1)NC(=O)[C@H](CCC(=O)O)NC(=O)[C@H](CCCNC(=N)N)NC(=O)[C@@H](NC(=O)[C@H](C)NC(=O)[C@H](CCC(=O)O)NC(=O)[C@H](CCC(=O)O)NC(=O)[C@H](CCC(=O)O)NC(=O)[C@H](CC(C)C)NC(=O)[C@H](Cc1ccc(O)cc1)NC(=O)[C@H](CO)NC(=O)[C@H](CO)NC(=O)[C@@H](NC(=O)[C@@H](N)CC(=O)O)C(C)C)C(C)C)[C@@H](C)CC)C(C)C)C(N)=O [SEQ ID NO: 72] (H-DVSSYLEEEAVREFIEWLVRGGPSSGAPPPSK(Palmitoyl)-NH2; N-terminus assumed)	>20
CCCCCCCCCCCCCCCC(=O)NCCCC[C@H](NC(=O)[C@H](CO)NC(=O)[C@@H]1CCCN1C(=O)[C@@H]1CCCN1C(=O)[C@@H]1CCCN1C(=O)[C@H](C)NC(=O)CNC(=O)[C@H](CO)NC(=O)[C@H](CO)NC(=O)[C@@H]1CCCN1C(=O)CNC(=O)CNC(=O)[C@H](CCCNC(=N)N)NC(=O)[C@@H](NC(=O)[C@H](CC(C)C)NC(=O)[C@H](Cc1c[nH]c2ccccc12)NC(=O)[C@H](CCC(=O)O)NC(=O)[C@@H](NC(=O)[C@H](Cc1ccccc1)NC(=O)[C@H](CCC(=O)O)NC(=O)[C@H](CCCNC(=N)N)NC(=O)[C@@H](NC(=O)[C@H](C)NC(=O)[C@H](CCC(=O)O)NC(=O)[C@H](CCC(=O)O)NC(=O)[C@H](CCC(=O)O)NC(=O)[C@H](CC(C)C)NC(=O)[C@H](Cc1ccc(O)cc1)NC(=O)[C@H](CCCNC(=N)N)NC(=O)[C@H](CO)NC(=O)[C@@H](NC(=O)[C@@H](N)CC(=O)O)C(C)C)C(C)C)[C@@H](C)CC)C(C)C)C(N)=O [SEQ ID NO: 75] (H-DVSRYLEEEAVREFIEWLVRGGPSSGAPPPSK(Palmitoyl)-NH2)	18.5

same assay, conditions: pH 7.4

Compound	solubility [µg/mL]
CCCCCCCCCCCCCCCC(=O)NCCCC[C@H](NC(=O)[C@H](CO)NC(=O)[C@@H]1CCCN1C(=O)[C@@H]1CCCN1C(=O)[C@@H]1CCCN1C(=O)[C@H](C)NC(=O)CNC(=O)[C@H](CO)NC(=O)[C@H](CO)NC(=O)[C@@H]1CCCN1C(=O)CNC(=O)CNC(=O)C(C)(C)NC(=O)[C@H](CCCCN)NC(=O)[C@H](CC(C)C)NC(=O)[C@H](Cc1c[nH]c2ccccc12)NC(=O)[C@H](C)NC(=O)[C@@H](NC(=O)[C@H](Cc1ccccc1)NC(=O)[C@H](CCC(=O)O)NC(=O)[C@H](CCCNC(=N)N)NC(=O)[C@@H](NC(=O)[C@H](C)NC(=O)[C@H](CCC(N)=O)NC(=O)[C@H](CCC(=O)O)NC(=O)[C@H](CCC(=O)O)NC(=O)[C@H](CC(C)C)NC(=O)[C@H](Cc1ccc(O)cc1)NC(=O)[C@H](CO)NC(=O)[C@H](CO)NC(=O)[C@@H](NC(=O)[C@@H](N)CC(=O)O)C(C)C)C(C)C)[C@@H](C)CC)C(N)=O [SEQ ID NO: 43]	200 (≈ 55.2 µM)
CCCCCCCCCCCCCCCC(=O)NCCCC[C@H](NC(=O)[C@H](CO)NC(=O)[C@@H]1CCCN1C(=O)[C@@H]1CCCN1C(=O)[C@@H]1CCCN1C(=O)[C@H](C)NC(=O)CNC(=O)[C@H](CO)NC(=O)[C@H](CO)NC(=O)[C@@H]1CCCN1C(=O)CNC(=O)CNC(=O)[C@H](CCCCN)NC(=O)[C@@H](NC(=O)C(C)(C)NC(=O)[C@H](Cc1c[nH]c2ccccc12)NC(=O)[C@H](C)NC(=O)[C@@H](NC(=O)[C@H](Cc1ccccc1)NC(=O)[C@H](CCC(=O)O)NC(=O)[C@H](CCCNC(=N)N)NC(=O)[C@@H](NC(=O)[C@H](C)NC(=O)[C@H](CCC(N)=O)NC(=O)[C@H](CCC(=O)O)NC(=O)[C@H](CCC(=O)O)NC(=O)[C@H](CC(C)C)NC(=O)[C@H](Cc1ccc(O)cc1)NC(=O)[C@H](CO)NC(=O)[C@H](CO)NC(=O)[C@@H](NC(=O)[C@@H](N)CC(=O)O)C(C)C)C(C)C)[C@@H](C)CC)C(C)C)C(N)=O [SEQ ID NO: 44] (H-DVSSYLEEQAVREFIAW[Aib]VKGGPSSGAPPPSK(Palmitoyl)-NH2; N-terminus assumed)	100 (≈ 27.7 µM)
CCCCCCCCCCCCCCCC(=O)NCCCC[C@H](NC(=O)[C@H](CO)NC(=O)[C@@H]1CCCN1C(=O)[C@@H]1CCCN1C(=O)[C@@H]1CCCN1C(=O)[C@H](C)NC(=O)CNC(=O)[C@H](CO)NC(=O)[C@H](CO)NC(=O)[C@@H]1CCCN1C(=O)CNC(=O)CNC(=O)[C@H](CCCCN)NC(=O)[C@@H](NC(=O)[C@H](CC(C)C)NC(=O)[C@H](Cc1c[nH]c2ccccc12)NC(=O)[C@H](C)NC(=O)[C@@H](NC(=O)[C@H](Cc1ccccc1)NC(=O)[C@H](CCC(=O)O)NC(=O)[C@H](CCCNC(=N)N)NC(=O)C(C)(C)NC(=O)[C@H](C)NC(=O)[C@H](CCC(N)=O)NC(=O)[C@H](CCC(=O)O)NC(=O)[C@H](CCC(=O)O)NC(=O)[C@H](CC(C)C)NC(=O)[C@H](Cc1ccc(O)cc1)NC(=O)[C@H](CO)NC(=O)[C@H](CO)NC(=O)[C@@H](NC(=O)[C@@H](N)CC(=O)O)C(C)C)[C@@H](C)CC)C(C)C)C(N)=O [SEQ ID NO: 45] (H-DVSSYLEEQA[Aib]REFIAWLVKGGPSSGAPPPSK(Palmitoyl)-NH2; N-terminus assumed)	400 (≈ 110 µM)
CCCCCCCCCCCCCCCC(=O)NCCCC[C@H](NC(=O)[C@H](CO)NC(=O)[C@@H]1CCCN1C(=O)[C@@H]1CCCN1C(=O)[C@@H]1CCCN1C(=O)[C@H](C)NC(=O)CNC(=O)[C@H](CO)NC(=O)[C@H](CO)NC(=O)[C@@H]1CCCN1C(=O)CNC(=O)CNC(=O)[C@H](CCCCN)NC(=O)[C@@H](NC(=O)[C@H](CC(C)C)NC(=O)[C@H](Cc1c[nH]c2ccccc12)NC(=O)[C@H](C)NC(=O)[C@@H](NC(=O)[C@H](Cc1ccccc1)NC(=O)[C@H](CCC(=O)O)NC(=O)[C@H](CCCNC(=N)N)NC(=O)[C@@H](NC(=O)C(C)(C)NC(=O)[C@H](CCC(N)=O)NC(=O)[C@H](CCC(=O)O)NC(=O)[C@H](CCC(=O)O)NC(=O)[C@H](CC(C)C)NC(=O)[C@H](Cc1ccc(O)cc1)NC(=O)[C@H](CO)NC(=O)[C@H](CO)NC(=O)[C@@H](NC(=O)[C@@H](N)CC(=O)O)C(C)C)C(C)C)[C@@H](C)CC)C(C)C)C(N)=O [SEQ ID NO: 46] (H-DVSSYLEEQ[Aib]VREFIAWLVKGGPSSGAPPPSK(Palmitoyl)-NH2; N-terminus assumed)	700 (≈ 192 µM)
CCCCCCCCCCCCCCCC(=O)NCCCC[C@H](NC(=O)[C@H](CO)NC(=O)[C@@H]1CCCN1C(=O)[C@@H]1CCCN1C(=O)[C@@H]1CCCN1C(=O)[C@H](C)NC(=O)CNC(=O)[C@H](CO)NC(=O)[C@H](CO)NC(=O)[C@@H]1CCCN1C(=O)CNC(=O)CNC(=O)[C@H](CCCCN)NC(=O)C(C)(C)NC(=O)[C@H](CC(C)C)NC(=O)[C@H](Cc1c[nH]c2ccccc12)NC(=O)[C@H](C)NC(=O)[C@@H](NC(=O)[C@H](Cc1ccccc1)NC(=O)[C@H](CCC(=O)O)NC(=O)[C@H](CCCNC(=N)N)NC(=O)[C@@H](NC(=O)[C@H](C)NC(=O)[C@H](CCC(N)=O)NC(=O)[C@H](CCC(=O)O)NC(=O)[C@H](CCC(=O)O)NC(=O)[C@H](CC(C)C)NC(=O)[C@H](Cc1ccc(O)cc1)NC(=O)[C@H](CO)NC(=O)[C@H](CO)NC(=O)[C@@H](NC(=O)[C@@H](N)CC(=O)O)C(C)C)C(C)C)[C@@H](C)CC)C(N)=O [SEQ ID NO: 81] (H-DVSSYLEEQAVREFIAWL[Aib]KGGPSSGAPPPSK(Palmitoyl)-NH2; N-terminus assumed)	1600 (≈ 441 µM)
CCCCCCCCCCCCCCCC(=O)NCCCC[C@H](NC(=O)[C@H](CO)NC(=O)[C@@H]1CCCN1C(=O)[C@@H]1CCCN1C(=O)[C@@H]1CCCN1C(=O)[C@H](C)NC(=O)CNC(=O)[C@H](CO)NC(=O)[C@H](CO)NC(=O)[C@@H]1CCCN1C(=O)CNC(=O)CNC(=O)C(C)(C)NC(=O)[C@@H](NC(=O)[C@H](CCCCN)NC(=O)[C@H](Cc1c[nH]c2ccccc12)NC(=O)[C@H](C)NC(=O)[C@@H](NC(=O)[C@H](Cc1ccccc1)NC(=O)[C@H](CCC(=O)O)NC(=O)[C@H](CCCNC(=N)N)NC(=O)[C@@H](NC(=O)[C@H](C)NC(=O)[C@H](CCC(N)=O)NC(=O)[C@H](CCC(=O)O)NC(=O)[C@H](CCC(=O)O)NC(=O)[C@H](CC(C)C)NC(=O)[C@H](Cc1ccc(O)cc1)NC(=O)[C@H](CO)NC(=O)[C@H](CO)NC(=O)[C@@H](NC(=O)[C@@H](N)CC(=O)O)C(C)C)C(C)C)[C@@H](C)CC)C(C)C)C(N)=O [SEQ ID NO: 82]	100 (≈ 27.7 µM)
CCCCCCCCCCCCCCCC(=O)NCCCC[C@H](NC(=O)[C@H](CO)NC(=O)[C@@H]1CCCN1C(=O)[C@@H]1CCCN1C(=O)[C@@H]1CCCN1C(=O)[C@H](C)NC(=O)CNC(=O)[C@H](CO)NC(=O)[C@H](CO)NC(=O)[C@@H]1CCCN1C(=O)CNC(=O)CNC(=O)[C@H](CCCCN)NC(=O)[C@@H](NC(=O)[C@H](CC(C)C)NC(=O)[C@H](Cc1c[nH]c2ccccc12)NC(=O)C(C)(C)NC(=O)[C@@H](NC(=O)[C@H](Cc1ccccc1)NC(=O)[C@H](CCC(=O)O)NC(=O)[C@H](CCCNC(=N)N)NC(=O)[C@@H](NC(=O)[C@H](C)NC(=O)[C@H](CCC(N)=O)NC(=O)[C@H](CCC(=O)O)NC(=O)[C@H](CCC(=O)O)NC(=O)[C@H](CC(C)C)NC(=O)[C@H](Cc1ccc(O)cc1)NC(=O)[C@H](CO)NC(=O)[C@H](CO)NC(=O)[C@@H](NC(=O)[C@@H](N)CC(=O)O)C(C)C)C(C)C)[C@@H](C)CC)C(C)C)C(N)=O [SEQ ID NO: 83] (H-DVSSYLEEQAVREFI[Aib]WLVKGGPSSGAPPPSK(Palmitoyl)-NH2; N-terminus assumed)	300 (≈ 82.1 µM)

From patent US20240116998A1, “GLUCAGON-LIKE PEPTIDE-1 RECEPTOR ANTAGONISTS” (INDIANA UNIVERSITY RESEARCH AND TECHNOLOGY CORPORATION, priority 2021, published 2024)
